Data from US7763752B2, “Amino alcohol derivatives, salts thereof and immunosuppresive agents” (Kyorin Pharmaceutical Co., Ltd., priority 2002, dated 2010).
Where a name gives a salt, the structure may show the parent alone. One block for each compound: values may come before it.

Tests used:
[1] = system: Host vs Graft Reaction in Mice; assay: Inhibitory effects of test compounds on host vs graft reaction in mice (popliteal lymph node weight); type: in vivo, C3H/HeN mice
Protocol: Inhibitory Effects of Test Compounds on Host vs Graft Reaction in Mice
This experiment was performed according to the method described in Transplantation 55(3) (1993): 578-591. Spleens were collected from 7 to 12 week old male BALB/c mice (available from CLEA JAPAN Inc., CHARLES RIVER JAPAN Inc., or JAPAN SLC Inc.). The spleens were placed in an RPMI-1640 medium (SIGMA, GIBCO […] Inc., or IWAKI GLASS Co., Ltd.) and were gently pressed between two slide glasses and then passed through a cell strainer (70 μm, Falcon) to form a cell suspension. The suspension was then centrifuged and the supernatant was discarded. An ammonium chloride-Tris isotonic buffer was added to the suspension to lyse erythrocytes. The cells were then centrifuged three times in RPMI-1640 medium for washing and were resuspended in an RPMI-1640 medium. To this suspension, mitomycin C (KYOWA HAKKO KOGYO Co., Ltd.) was added to a final concentration of 25 μg/mL and the suspension was incubated for 30 minutes at 37° C. in a 5% CO2 atmosphere. The cells were centrifuged three times in RPMI-1640 medium for washing and were resuspended in an RPMI-1640 medium so that the medium would contain 2.5×10^8 cells/mL. This suspension served as a “stimulation cell suspension.” Using a 27 G needle, along with a microsyringe (Hamilton), 20 μL (5×10^6 cells/mouse) of the stimulation cell suspension was subcutaneously injected into the right hind footpad of 6 to 12 week old male C3H/HeN mice (CLEA JAPAN Inc., CHARLES RIVER JAPAN Inc., or JAPAN SLC Inc.). As a normal control group, a group of mice were injected with RPMI-1640 medium alone. 4 days after the injection, right popliteal lymph nodes were collected and were weighed on a Mettler AT201 electronic scale (METTLER TOLEDO Co., Ltd.). Each animal was intraperitoneally administered a test compound once a day for four consecutive days starting on the day of the injection of the stimulation cells (i.e., total of 4 times). As a control group, a group of the animals were administered the same solvent as that used in the preparation of each test compound.

[2] = Mus musculus, ip, dose 0.1 mg/kg
[3] = Mus musculus, ip, dose 0.03 mg/kg

melting point: 154 to 156 °C
Structure (SMILES): Cl.NC(CO)CCCc1ccc(S(=O)(=O)c2cccc(OCc3ccccc3)c2)cc1Cl (stereo not shown)

melting point: 166 to 168 °C
Structure (SMILES): Cl.NC(CO)CCCc1ccc(Sc2cccc(C(F)(F)F)c2)cc1Cl (stereo not shown)

Structure (SMILES): CCC(N)(CO)CCCc1ccc(Sc2cccc(OCc3ccccc3)c2)cc1Cl (racemic) [Example 188, (±)-2-amino-5-[4-(3-benzyloxyphenylthio)-2-chlorophenyl]-2-ethylpentane-1-ol hydrochloride]
inhibition in vivo at 0.1 mg/kg [1, 2]: 78%

Structure (SMILES): CCC(N)(CO)CCc1ccc(Sc2cccc(OCc3ccccc3)c2)cc1Cl (racemic) [Example 194, (±)-2-amino-4-[4-(3-benzyloxyphenylthio)-2-chlorophenyl]-2-ethylbutane-1-ol]
inhibition in vivo at 0.1 mg/kg [1, 2]: 70%

Structure (SMILES): CC(N)(CO)CCCc1ccc(Sc2cccc(OCc3ccccc3)c2)cc1Cl (single isomer, unassigned; (+)) [Example 184, (+)-2-amino-5-[4-(3-benzyloxyphenylthio)-2-chlorophenyl]-2-methylpentane-1-ol]
Inhibition (%) ([1]; dose 0.1 mg/kg): 45%

Structure (SMILES): CC(N)(CO)CCCc1ccc(Sc2cccc(OCc3ccccc3)c2)cc1Cl (single isomer, unassigned; (+)) [Example 185, (+)-2-amino-5-[4-(3-benzyloxyphenylthio)-2-chlorophenyl]-2-methylpentane-1-ol]
Inhibition (%) ([1]; dose 0.1 mg/kg): 88%

Structure (SMILES): CCC(N)(CO)CCCc1ccc(Sc2cccc(OCc3ccccc3)c2)cc1Cl (single isomer, unassigned; (+)) [Example 189, (+)-2-amino-5-[4-(3-benzyloxyphenylthio)-2-chlorophenyl]-2-ethylpentane-1-ol]
inhibition in vivo at 0.03 mg/kg [1, 3]: 71%

Structure (SMILES): CC(N)(CO)CCc1ccc(Sc2cccc(OCc3ccccc3)c2)cc1Cl.Cl (single isomer, unassigned; (+)) [Example 191, (+)-2-amino-4-[4-(3-benzyloxyphenylthio)-2-chlorophenyl]-2-methylbutane-1-ol hydrochloride]
Inhibition (%) ([1]; dose 0.1 mg/kg, hydrochloride): 41%

Structure (SMILES): CC(N)(CO)CCc1ccc(Sc2cccc(OCc3ccccc3)c2)cc1Cl.Cl (single isomer, unassigned; (+)) [Example 192, (+)-2-amino-4-[4-(3-benzyloxyphenylthio)-2-chlorophenyl]-2-methylbutane-1-ol hydrochloride]
Inhibition (%) ([1]; dose 0.1 mg/kg, hydrochloride): 86%

melting point: 55 to 57 °C
Structure (SMILES): CCCC(N)(CO)CCCc1ccc(Sc2cccc(OCc3ccccc3)c2)cc1Cl.Cl (single isomer, unassigned; (+)) [Example 209, (+)-2-amino-5-[4-(3-benzyloxyphenylthio)-2-chlorophenyl]-2-propylpentane-1-ol]
Inhibition (%) ([1]; dose 0.03 mg/kg): 71%

Structure (SMILES): CCC(N)(CO)CCc1ccc(Sc2cccc(OCc3ccccc3)c2)cc1Cl (single isomer, unassigned; (-)) [Example 196, (−)-2-amino-4-[4-(3-benzyloxyphenylthio)-2-chlorophenyl]-2-ethylbutane-1-ol]
inhibition in vivo at 0.03 mg/kg [1, 3]: 63%

Structure (SMILES): OCC(CCCc1ccc(Oc2cccc(C(F)(F)F)c2)cc1)Nc1ccccc1 (stereo not shown) [Example 127, 2-phenylamino-5-[4-(3-trifluoromethylphenoxy)phenyl]pentane-1-ol]
inhibition in vivo at 10 mg/kg ([1]; Mus musculus, ip, dose 10 mg/kg): 57%

Structure (SMILES): CC(O)C(CCCc1ccc(Oc2cccc(OCc3ccccc3)c2)cc1Cl)NC(=O)OC(C)(C)C (stereo not shown) [Example 131, 6-[4-(3-benzyloxyphenoxy)-2-chlorophenyl]-3-t-butoxycarbonylaminohexane-2-ol]
inhibition in vivo at 0.3 mg/kg ([1]; Mus musculus, ip): 57%

Structure (SMILES): CC(O)C(N)CCCc1ccc(Sc2cccc(OCc3ccccc3)c2)cc1Cl (stereo not shown) [Example 135, 3-amino-6-[4-(3-benzyloxyphenylthio)-2-chlorophenyl]hexane-2-ol hydrochloride]
inhibition in vivo at 1 mg/kg ([1]; Mus musculus, ip, dose 1 mg/kg): 69%

Structure (SMILES): NC(CO)(CCO)CCCc1ccc(Sc2cccc(OCc3ccccc3)c2)cc1Cl (stereo not shown) [Example 148, 3-amino-6-[4-(3-benzyloxyphenylthio)-2-chlorophenyl]-3-hydroxymethylhexanol hydrochloride]
inhibition in vivo at 0.3 mg/kg ([1]; Mus musculus, ip): 71%

Structure (SMILES): NC(CO)(CCCO)CCCc1ccc(Sc2cccc(OCc3ccccc3)c2)cc1Cl (stereo not shown) [Example 151, 4-amino-7-[4-(3-benzyloxyphenylthio)-2-chlorophenyl]-4-hydroxymethylheptanol hydrochloride]
inhibition in vivo at 0.03 mg/kg [1, 3]: 65%

Structure (SMILES): CCCC(N)(CO)CCCc1ccc(Sc2cccc(OCc3ccccc3)c2)cc1Cl (stereo not shown) [Example 197]
inhibition in vivo at 0.03 mg/kg [1, 3]: 54%

melting point: 78 to 81 °C
Structure (SMILES): CC(=O)NC(CO)CCc1ccc(Sc2cccc(OCc3ccccc3)c2)cc1Cl (stereo not shown) [Example 201, 2-acetylamino-4-[4-(3-benzyloxyphenylthio)-2-chlorophenyl]butane-1-ol]

Structure (SMILES): C#CCC(N)(CO)CCCc1ccc(Sc2cccc(OCc3ccccc3)c2)cc1Cl (stereo not shown) [Example 222, 2-amino-5-[4-(3-benzyloxyphenylthio)-2-chlorophenyl]-2-propargylpentane-1-ol hydrochloride]
inhibition in vivo at 0.3 mg/kg ([1]; Mus musculus, ip): 57%

Structure (SMILES): CC(C)CC(N)(CO)CCCc1ccc(Sc2cccc(OCc3ccccc3)c2)cc1Cl (stereo not shown) [Example 223, 2-amino-5-[4-(3-benzyloxyphenylthio)-2-chlorophenyl]-2-isobutylpentane-1-ol hydrochloride]
inhibition in vivo at 0.3 mg/kg ([1]; Mus musculus, ip): 70%

Structure (SMILES): CCC(N)=C(CO)CCCc1ccc(Sc2cccc(OCc3ccccc3)c2)cc1Cl [Example 227, 3-amino-7-[4-(3-benzyloxyphenylthio)-2-chlorophenyl]-4-hydroxymethyl-3-heptene hydrochloride]
inhibition in vivo at 0.3 mg/kg ([1]; Mus musculus, ip): 58%
